Experimental data as given in patent publication US7347997B1, “Method of using a feedstuff additive” (priority 1998, dated 2008).
Where two headings read alike, the source gives them in different places.

How the values were obtained:
weaned piglets = conditions: pig, in vivo

SMILES	concentration without any adverse effect on the cell activity (chicken lymphocytes; checking after 28 and after 44 hours)	concentration without apparent change of proliferation foci / no negative effects on the cell culture (chicken lymphocytes; checking after 20 hours, listed as DOM)	concentration without apparent change of proliferation foci / no negative effects on the cell culture (chicken lymphocytes; checking after 20 hours, listed as deepoxymetabolite)	FCR (weaned piglets)	Feedstuff intake/animal/day (weaned piglets)	Losses (total) (weaned piglets)	Weight increase/animal/day (weaned piglets)	action on the cell culture (chicken lymphocytes)	concentration from which a marked adverse effect on the cell activity is present (chicken lymphocytes; checking after 20 hours)
C=C1[C@@H]2O[C@@H]3C=C(C)C(=O)[C@@H](O)[C@]3(CO)[C@@]1(C)C[C@H]2O [DOM-1]	58 µg/mL	≤ 58 µg/mL	58 µg/mL	–	–	–	–	–	–
CC1=C[C@H]2O[C@@H]3[C@H](O)C[C@](C)([C@@]2(CO)[C@H](O)C1=O)[C@]31CO1 [DON, deoxynivalenol]	–	–	–	1.79	226.3	0	126.2 g	marked damage to the cells	≥ 0.625 µg/mL
